Measurements taken from patent US20110306638A1, “BENZISOXAZOLE PIPERIDINYL DERIVATIVES, PHARMACEUTICAL COMPOSITIONS COMPRISING THE DERIVATIVES AND THEIR USE” (NHWA PHARMA. CORPORATION, priority 2008, published 2011).
Marks after values point to notes of the source that are not given here.

Legend:
[1] = tested on: Kunming mice; assay: Hot-plate test in mice; format: in vivo; details: 1 h post dose
Description: Kunming mice, SPF KM mice were purchased from […] SLAC LABORATORY ANIMAL CO. LTD and kept in normal environment.
The compounds were dissolved in water for injection at a concentration of 4 mg/ml, 2 mg/ml and 1 mg/ml and were given subcutaneously to animals.
(§1) Three different doses (10, 20, and 40 mg/kg) were administered to the test groups.
Morphine was used as a positive control and hot plate test was used.
30-40 mice (half male and half female) weighed from 18 to 23 gram were used. First, each mouse was placed on a hot plat at 55° C. to determine basic pain threshold for 2-3 times. Those animals with basic pain threshold of 5-30 s were qualified, unqualified mice were not used. 30 qualified mice were divided into five groups, including negative control group, positive control group, low-dose group, medium-dose group and high-dose group:
Mice in test groups received test sample solution (10 mg/kg, 20 mg/kg, 40 mg/kg) via subcutaneous injection in the neck. Positive control group received subcutaneous injection of morphine (2 mg/kg). One hour later, pain threshold values were determined for mice in each group as post-drug pain threshold. Percentage increase in pain threshold was calculated according to the following equation: […]

[2] = biological target: T1, 5-HT reuptake by brain synapses (Rattus norvegicus, UniProt P31652); assay: [3H]5-HT reuptake test in rat brain synapses; format: biochemical; details: for inhibitory activity on 5-HT reuptake (in words): at 10 μmol/L, compared with Dutoxetine; for inhibition at 10 µM: final concentration 10 umol/L, rat brain synapses, read-out: 5-HTU [3H] 5-HT reuptake inhibition percentage Mean
T1 construct: forehead cortex was obtained for [^3H]5-HT, [^3H]NA reuptake test; from tissue; host or cells: rat (SD) forebrain cortex synaptosomes
Description: The method was as follows:
Male SD rats were killed by cervical dislocation, heads were immediately cut and brains were obtained and put on ice, related brain tissues were dissected (forehead cortex was obtained for [^3H]5-HT, [^3H]NA reuptake test, corpus striatum was obtained for [^3H]DA reuptake).
After the sample was weighed, 10 folds (V/W) ice cold 0.32 mol/L sucrose solution was added.
According to [a. […] 5-HT was added and after incubation in water bath at 37° C. for 10 min, the reaction mixture was immediately taken out of the water bath and 2 ml ice cold 150 mmol/L Tris-HCl was added to terminate the reaction. The sample was collected on a round glass fiber filter by vacuum filtration and washed three times with 3 ml ice cold Tris-HCl buffer. The filter membrane was removed, dried in a far-infrared oven for 15 min, then transferred into a EP tube, in which 1.5 ml scintillation fluid was added, left overnight and detected by a scintillation counter. The test sample was not added into solvent controlled overall binding tube or non-specific binding tube. 50 μl solvent was added into the overall binding tube, and in [^3H] 5-HT reuptake test, 600 μmol/L cocaine was added into the non-specific binding tube.

[3] = tested on: Kunming mice; assay: Acetic acid-induced abdominal writhing test in mice; format: in vivo
Description: Kunming mice, SPF KM mice purchased from […] SLAC LABORATORY ANIMAL CO. LTD and kept in normal environment.
The compounds were dissolved in water for injection at a concentration of 4 mg/ml, 2 mg/ml and 1 mg/ml and were given intragastrically to animals.
as §1
Aspirin was used as a positive control and acetic acid writhing test was used.
30 mice (half male and half female) weighing 18-23 g were divided into five groups, including negative control group, positive control group, low dose group, medium dose group and high dose group:
Mice in test group received test drug (10 mg/kg, 20 mg/kg, 40 mg/kg) via intragastric administration. Negative control group received physiological saline (20 ml/kg) via oral administration. Positive control group received aspirin (200 mg/kg) via oral administration. One hour later, each group received 0.7% acetic acid 10 ml/kg intraperitoneally. Five minutes later, the number of writhes was counted within the subsequent 15 min period; inhibition percentage of writhing response in each test group was calculated by the following equation: […]

[4] = tested on: mice; assay: Sedative effects in mice (spontaneous activities); format: in vivo; design: unit not given here; details: single dose 20 mg/kg
Description: Spontaneous activities of the mice were recorded by alternating current tube, Sedative effects were tested after single dose (20 mg/kg).

[5] = biological target: T2, 5-HT2A receptor (Homo sapiens, UniProt P28223); assay: In-vitro competitive binding to 5-HT2A receptor, [3H]-Ketanserin, transformed HEK293 cells; details: for IC50 / Ki: affinity to 5-HT2A receptor, concentration gradient test; for inhibitory activity on 5-HT2A (in words): compared with Aripiprazole; for inhibition at 10 µM: final concentration 10 umol/L, read-out: 5-HT2A [3H]-Ketanserin inhibition percentage
T2 construct: expressed in transfected cells; host or cells: HEK293
Description: All test samples were dissolved in DMSO at a concentration of 0.01 mol/L, and then diluted with deionized water to 100 umol/L.
HEK293 cells were transformed with plasmid carriers containing the gene coding for 5-HT2A receptor protein by using calcium phosphate transformation. Stable cell strains which could stably express 5-HT2A receptor protein were obtained from the transformed cells by cultivating in a culture media containing G418, selecting monoclones of the cell and performing radioactive ligand binding assay.
Beckman LS 6500 Scintillation Counter.
HEK-293 cells were infected with recombined viruses containing various genes described above. […] Cells were centrifuged at 1000 rpm for 5 min Culture media was discarded, and cell bodies were collected and stored at −20° C. in a freezer. The cell bodies were resuspended with Tris-HCl reaction buffer during assay.
After incubation at 37° C. for 15 min, the reaction mixture was immediately transferred into ice bath to terminate the reaction; the reaction mixture was quickly filtered through GF/C glass cellulose filter on a Millipore cell sample collector, and was then washed with eluting solution (50 mM Tris-HCl, PH 7.7, 3 ml×3) and dried in a microwave for 8-9 min. The filter was transferred into a 0.5 ml centrifuge tube, and 500 μl lipid soluble scintillation fluid was added. The centrifuge tube was allowed to stand in darkness for more than 30 min. Radioactivity was determined by counting Inhibition percentage of each compound on isotope ligand binding was calculated according to the following equation:
inhibition percentage(I %)=cpm of overall binding tube−cpm of compound/cpm of overall binding tube−cpm of nonspecific binding tube×100%.
Each compound was tested in two duplicate test tubes and two separate tests were performed.

[6] = 10 mg/kg intragastric administration
[7] = 20 mg/kg intragastric administration
[8] = 40 mg/kg intragastric administration

T2 sequence (P28223 whole entry): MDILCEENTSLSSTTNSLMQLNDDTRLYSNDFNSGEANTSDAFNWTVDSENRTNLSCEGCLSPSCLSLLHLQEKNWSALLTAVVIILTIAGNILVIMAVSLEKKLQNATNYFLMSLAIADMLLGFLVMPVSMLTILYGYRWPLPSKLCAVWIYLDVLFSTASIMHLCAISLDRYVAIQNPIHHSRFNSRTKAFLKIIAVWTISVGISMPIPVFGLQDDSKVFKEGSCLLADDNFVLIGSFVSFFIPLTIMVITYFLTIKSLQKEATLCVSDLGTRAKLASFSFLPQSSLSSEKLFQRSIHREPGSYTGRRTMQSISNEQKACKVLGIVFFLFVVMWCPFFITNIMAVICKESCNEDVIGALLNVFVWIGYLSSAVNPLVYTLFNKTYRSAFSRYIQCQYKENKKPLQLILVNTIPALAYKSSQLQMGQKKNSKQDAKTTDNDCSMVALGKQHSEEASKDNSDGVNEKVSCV
T1 sequence (P31652 whole entry): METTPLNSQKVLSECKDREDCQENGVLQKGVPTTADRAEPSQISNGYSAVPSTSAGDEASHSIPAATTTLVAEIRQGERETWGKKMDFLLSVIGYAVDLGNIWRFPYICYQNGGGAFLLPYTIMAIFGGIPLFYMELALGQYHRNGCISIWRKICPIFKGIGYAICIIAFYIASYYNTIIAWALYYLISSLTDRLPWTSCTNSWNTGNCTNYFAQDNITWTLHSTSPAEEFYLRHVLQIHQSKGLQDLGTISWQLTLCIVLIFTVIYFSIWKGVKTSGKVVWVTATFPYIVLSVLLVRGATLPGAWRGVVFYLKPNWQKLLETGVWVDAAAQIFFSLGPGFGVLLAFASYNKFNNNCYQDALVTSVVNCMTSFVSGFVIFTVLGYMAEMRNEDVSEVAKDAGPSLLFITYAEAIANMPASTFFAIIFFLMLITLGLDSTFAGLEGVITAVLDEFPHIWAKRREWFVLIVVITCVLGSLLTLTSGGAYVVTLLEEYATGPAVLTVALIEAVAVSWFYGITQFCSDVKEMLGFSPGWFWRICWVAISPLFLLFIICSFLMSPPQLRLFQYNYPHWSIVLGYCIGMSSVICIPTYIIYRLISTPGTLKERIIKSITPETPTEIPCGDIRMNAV

Row | SMILES | Percentage increase in pain threshold ([1]; 10 mg/kg S.c.) | Percentage increase in pain threshold ([1]; 20 mg/kg S.c.) | Percentage increase in pain threshold ([1]; 40 mg/kg S.c.) | inhibitory activity on 5-HT reuptake (in words) [2] | inhibition at 10 µM [2] [%] | Inhibition percentage of writhing response [3, 6] | Inhibition percentage of writhing response [3, 7] | Inhibition percentage of writhing response [3, 8] | Sedative effect [4] | IC50 [5] [nM] | Ki [5] [nM] | inhibitory activity on 5-HT2A (in words) [5] | inhibition at 10 µM [5] [%]
1 | Fc1ccc2c(C3CCN(CCCCn4ccc5ccccc54)CC3)noc2c1 [II-3, 3-(1-(4-(1H-indol-1-yl)butyl)piperidin-4-yl)-6-fluorobenzo[d]isoxazole] | 95.48* % | 194** % | 133% | potent inhibitory activities | 95.9 | 98.65** % | 100.0** % | 100.0** % | 35 | 1.66 | 1.12 | potent inhibitory activities | 100
2 | N#Cc1ccc2ccn(CCCN3CCC(c4noc5cc(F)ccc45)CC3)c2c1 [II-6, 1-(3-(4-(6-fluorobenzo[d]isoxazol-3-yl)piperidin-1-yl)propyl)-1H-indole-6-carbonitrile] | 41.11% | 73.68* % | 72.38* % | potent inhibitory activities | 96.7 | 74.09* % | 69.55% | 100.0** % | 75** | 4.78 | 3.22 | potent inhibitory activities | 100
3 | Fc1ccc2c(C3CCN(CCCCn4ccc5ccc(F)cc54)CC3)noc2c1 [II-8, 6-fluoro-3-(1-(4-(6-fluoro-1H-indol-1-yl)butyl)piperidin-4-yl)benzo[d]isoxazole] | 97.49% | 160.50** % | 172.81* % | potent inhibitory activities | 107 | 95.88* % | 96.46** % | 100.0** % | 42* | 5.33 | 2.79 | potent inhibitory activities | 100
